Consider nine compounds from patent publication US20110263046A1, “Methods of identification of novel ligands for modulation of orphan nuclear receptor RAR-related orphan receptor-gamma (NR1F3) activity” (PHENEX PHARMACEUTICALS AG, priority 2008, published 2011).

“Also recorded” adds a separate entry of the source.

In assay [1] the target is T1, RORgamma ligand binding domain (Homo sapiens, UniProt P51449).
T1 sequence (P51449 267-518): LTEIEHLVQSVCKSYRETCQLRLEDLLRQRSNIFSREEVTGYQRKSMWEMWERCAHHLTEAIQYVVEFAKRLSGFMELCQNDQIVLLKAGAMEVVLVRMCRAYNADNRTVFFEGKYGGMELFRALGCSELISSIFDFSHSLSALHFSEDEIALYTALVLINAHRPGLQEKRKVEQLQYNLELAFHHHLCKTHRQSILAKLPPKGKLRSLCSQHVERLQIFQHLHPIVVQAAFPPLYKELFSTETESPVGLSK
Briefly: TR-FRET ligand sensing assay: RORγ-LBD / coactivator peptide interaction. The assay is classed as biochemical. Also noted: made in house; host or cells: E. coli BL21(DE3). To be noted: for IC50: antagonistic. The procedure:
As described in more detail in the examples, a GST-RORgamma-LBD fusion protein is expressed and purified from E. coli. The TR-FRET assays were performed in a final volume of 25 μl in individual wells of a 384 well plate using a Tris-based buffer system: 10-50 mM Tris-HCl pH 7.9; 50-100 mM KCl, 1-10 mM MgCl2; 20-100 ng/μl BSA), containing 20-60 ng/well recombinantly expressed RORγ-LBD fused to GST, 200-600 nM N-terminally biotinylated peptide (e.g. derived from SRC-1 or TIF-2), 50-500 ng/well Streptavidin-xIAPC conjugate (Prozyme) and 2-20 ng/well Eu W1024-antiGST (Perkin Elmer).
The human RORg ligand binding domain (LBD) was expressed in E. coli strain BL21(DE3) as an N-terminal glutathione-S-transferase (GST) tagged fusion protein. The DNA encoding the RORg ligand binding domain was cloned into vector pDEST15 (Invitrogen). […] Expression in pDEST15 is controlled by a IPTG inducible T7 promoter and cloning and transformation of E. coli was done essentially according to standard protocols known to persons skilled in the art and supplied by Invitrogen.
Determination of the interaction of a ligand with the human RORgamma ligand binding domain was done by using a Ligand Sensing Assay based on Time-resolved Fluorescence Energy Transfer (TR-FRET).
This method measures the ability of putative ligands to modulate the interaction between the purified bacterial expressed RORg ligand binding domain (LBD) and synthetic N-terminally biotinylated peptides which are derived from nuclear receptor coactivator proteins such as but not limited to SRC1 (NcoA1), SRC2 (NcoA2,TIF2), SRC3 (NcoA3), PGC1α, PGC1β, CBP, GRIP1, TRAP220, RIP140.
(§1) The ligand binding domain (LBD) of RORγ was expressed as fusion protein with GST in […] cells using the vector pDEST15. Cells were lysed by lysozyme-treatment and sonication, and the fusion proteins purified over glutathione sepharose (Pharmacia) according to the manufacturers instructions. For screening of compounds for their influence on the RORγ-peptide interaction, the LANCE technology (Perkin Elmer) was applied. This method relies on the binding dependent energy transfer from a donor to an acceptor fluorophor attached to the binding partner of interest. For ease of handling and reduction of background from compound fluorescence LANCE technology makes use of generic fluorophore labels and time resolved detection assays were done in a final volume of 25 μl in a 384 well plate, in a Tris-based buffer (20 mM Tris-HCl pH 7.9; 60 mM KCl, 5 mM MgCl2; 35 ng/μl BSA), containing 20-60 ng/well recombinantly expressed RORγ-LBD fused to GST, 200-600 nM N-terminally biotinylated peptide, 200 ng/well Streptavidin-xIAPC conjugate (Prozyme) and 6-10 ng/well Eu W1024-antiGST (Perkin Elmer). DMSO content of the samples was kept at 1%. After generation of the assay mix the potentially RORγ modulating ligands were diluted. After his step, the assay was equilibrated for one hour in the dark at room temperature in FIA-plates black 384 well (Greiner). The LANCE signal was detected by a Perkin Elmer VICTOR2V™ Multilabel Counter. […] Ligands that promote the complex formation induce a concentration-dependent increase in time-resolved fluorescent signal.
Equation: Sigmoidal dose-response (variable slope) Y=Bottom+(Top-Bottom)/(1+10̂((LogEC50-X)*HillSlope))
This is identical to the “four parameter logistic equation”. The EC50 or IC50 values are calculated using this equation.
In general terms: TR-FRET usually uses a lanthanide donor and a delayed reading to cut background.

For assay [2], the target named is T1, RORgamma ligand binding domain. Description: TR-FRET assay variation: agonist titration on top of saturating antagonist (4 μM LE540). Also noted: made in house; host or cells: E. coli BL21(DE3). It counts as biochemical.
Description: as §1
In a variation of the assay described above, an antagonistic compound was added in a saturating concentration (4 μM) to the assay mix. Then the agonistic compounds were diluted and the assay was equilibrated for one hour in the dark.

The target is the same in assay [3]. Briefly: Radioligand displacement assay (3H-25-hydroxycholesterol). On the set-up: made in house; host or cells: E. coli BL21 (DE3). To be noted: FIG. 1; for apparent potency and efficacy of displacement: comparison among ligands; for displacement of 3H-25-hydroxycholesterol bound to RORgamma-LBD: dose dependent, radioligand at saturating concentration (500 nM). The source says: This method measures the ability of putative ligands to displace a radioactively labeled compound that is bound to the RORgamma ligand binding domain.
The ligand binding domain (LBD) of RORγ was expressed as fusion protein with GST in BL-21 cells using the vector pDEST15. Cells were lysed by lysozyme-treatment and sonication, and the fusion proteins purified over glutathione sepharose (Pharmacia) according to the manufacturers instructions. For screening of compounds for their ability to bind to RORγ, commercially available 25-26,27-[…]-hydroxycholesterol
(Perkin Elmer, NET674250UC) was bound to the protein and displacement by non radioactive ligands was observed. The assay was done in a final volume of 100 μl in a 96-well glutathione and scintillant coated microplate (Perkin Elmer, SMP109001PK). […] Compounds to be tested were titrated and added to the protein-radioligand mix. DMSO content of the samples was kept at 1%. After addition of the compounds, the assay was equilibrated for 30 min at room temperature. After this incubation the assay plate wells were washed twice with Tris buffer (20 mM Tris-HCl pH 7.5; 60 mM KCl, 5 mM MgCl2) and subsequently measured for 500 sec per well in a LUMIstar OPTIMA (BMG).
In general terms: Displacement assays read how much labelled ligand stays bound in the presence of the test substance.

In assay [4] the test system is IL-17 production by peripheral blood human mononuclear cells (PBMCs). Description: PBMC stimulation and IL-17 secretion assay (ELISA). The assay is classed as cell-based. To be noted: 72 h; for mean concentration of IL-17: anti-CD3/anti-CD28 stimulated PBMCs. The procedure:
Cryopreserved peripheral blood human mononuclear cells (PBMCs) were used for the experiments. The cells were thawed in CTL-Anti-Aggregate-Wash™ solution and washed once in CTL Wash™ medium with benzonase. PBMCs, suspended in CTL serum-free test media (CTL-Test™ Medium), were plated into 96-well BD BioCoat Anti-Human CD3 T-Cell activation plate at a total of 1×10^5 cells/well in triplicate. The cells were incubated with anti-CD28 (2 μg/ml) in the absence or presence of LE540, LE135 and Am580 at different concentrations for 72 h at 37° C. with 5% CO2. The compounds were added at the time 0. The supernatants were harvested and assayed for IL-17 according to the protocol from the corresponding ELISA kit (Invitrogen). The detection range was 15.6-1,000.0 pg/ml. Data are presented as means±s.d. values.
In the control experiments PBMCs were stimulated with anti-CD3 (plate) and anti-CD28 in the presence of 0.1% DMSO. The mean concentration of IL-17 was 1,003.36±45.18 pg/ml. In contrast, the concentration of IL-17 in non stimulated cells was under the detection range (<15.6 pg/ml). […] The compounds were added to the cells at time 0 together with the anti-CD28 mAb. […] The lower concentration of LE540 (0.1 μM) was also very potent in PBMCs. […] The amount of IL-17 protein was down regulated after treatment of cells with 3, 1, and 0.3 μM of LE135 (FIG. 3).
A general note: An ELISA detects its analyte on a solid surface through an enzyme-linked reagent.

Where [5] appears, read: agonistic, peptide TIF2(628-658), read-out: EC50.
Where [6] appears, read: agonistic, assay includes 4 μM LE540, peptide TIF2(628-658), read-out: apparent EC50.
[7] abbreviates: Homo sapiens, PBMC, 0.3 μM compound, stimulated PBMCs, read-out: percentage of IL-17 inhibition.

Regarding `CC(C)CC[C@@H](O)[C@@H](C)[C@H]1CC[C@H]2[C@@H]3CC=C4C[C@@H](O)CC[C@]4(C)[C@H]3CC[C@]12C` [22R-Hydroxycholesterol], the EC50 – broadly, the concentration at which the effect is half-maximal – in assay [1] was 0.0165 µM; in assay [2], 0.154 µM.
For the compound `C[C@@H](CO)CCC[C@@H](C)[C@H]1CC[C@H]2[C@@H]3CC=C4C[C@@H](O)CC[C@]4(C)[C@H]3CC[C@]12C` [(25R)-26-Hydroxycholesterol], the figures for the EC50 in assay [1] (setting [5]) and in assay [2] (setting [6]) were 0.0141 µM and 0.146 µM, respectively.
For the compound `CC(C)(C)c1cc(C(=O)C=Cc2ccc(C(=O)O)cc2)cc(C(C)(C)C)c1` [Ch55], the IC50 – broadly, the concentration needed to halve the response being measured – in assay [1] (peptide SRC1(676-700)) is 12.2 µM; in assay [1] (peptide TIF2(628-658)) it was 11.3 µM. In assay [3], the “apparent potency and efficacy of displacement” value (from here on “apparent potency and efficacy”) was “lowest potency and efficacy”. Moreover, the “displacement of 3H-25-hydroxycholesterol bound to RORgamma-LBD” value is given as “able to displace” in assay [3] and “dose-dependent competitive displacement” in assay [3] (listed as CH55).
Regarding `COC(=O)CC[C@@H](C)[C@H]1CC[C@H]2[C@@H]3CC=C4C[C@@H](O)CC[C@]4(C)[C@H]3CC[C@]12C` [Cholenic Acid Methyl Ester], the EC50 in assay [1] (agonistic, peptide TIF2(628-658), listed as cholenic acid methyl ester, read-out: EC50) worked out at 0.0277 µM; in assay [1] (setting [5]) it was 0.0275 µM; in assay [2] (setting [6]), 0.311 µM.
As for `C[C@H](CCC(=O)N(C)C)[C@H]1CC[C@H]2[C@@H]3CC=C4C[C@@H](O)CC[C@]4(C)[C@H]3CC[C@]12C` [DMHCA], the EC50 was determined as 0.0107 µM in assay [1] (setting [5]) and 0.085 µM in assay [2] (setting [6]).
For `CN1c2cc3c(cc2N=C(c2ccc(C(=O)O)cc2)c2ccccc21)C(C)(C)CCC3(C)C` [LE135], the IC50 in assay [1] (peptide SRC1(676-700)) was found to be 19.3 µM; in assay [1] (peptide TIF2(628-658)), 13.2 µM. Besides, the inhibition (as a rule, the change of the read-out against control, counted positive when it falls) at 0.3 µM in assay [4] (setting [7]) is 35.8%. For the same compound, in assay [4] (Homo sapiens, PBMC, 1 μM compound, stimulated PBMCs, read-out: percentage of IL-17 inhibition), the inhibition at 1 µM stood at 61.9%. The inhibition at 3 µM in assay [4] (Homo sapiens, PBMC, 3 μM compound, stimulated PBMCs, read-out: percentage of IL-17 inhibition) stood at 75.9%. Besides, the “production of IL-17 by human PBMCs (qualitative)” value (from here on “production”) in assay [4] (stimulated PBMCs) is listed as “inhibit the production of IL-17”.
`CN1c2cc3c(cc2N=C(c2ccc(C(=O)O)cc2)c2ccc4ccccc4c21)C(C)(C)CCC3(C)C` [LE540]: the results for the IC50 in assay [1] (peptide SRC1(676-700)) and in assay [1] (peptide TIF2(628-658)) were 3.6 µM and 4.9 µM, respectively. In addition, the “apparent potency and efficacy” value in assay [3] is listed as “highest”. Further, in assay [3], the “displacement of 3H-25-hydroxycholesterol bound to RORgamma-LBD” value is “able to displace; also recorded: dose-dependent competitive displacement”. Also, the “mean concentration of IL-17” value in assay [4] (0.1 μM compound) was 659.39 pg/mL; in assay [4] (0.3 μM compound) it was 289.69 pg/mL. Moreover, the inhibition at 0.1 µM in assay [4] (Homo sapiens, PBMC, 0.1 μM compound, stimulated PBMCs, read-out: percentage of IL-17 inhibition) is 34.3%. Besides, the inhibition at 0.3 µM in assay [4] (setting [7]) stood at 71.1%. In addition, the “production” value in assay [4] (stimulated PBMCs) was “inhibit the production of IL-17”.
With `C/C(=C\c1ccc(C(=O)O)cc1)c1ccc2c(c1)C(C)(C)CCC2(C)C` [TTNPB], the IC50 in assay [1] (peptide SRC1(676-700)) came to 8.6 µM; in assay [1] (peptide TIF2(628-658)), 8.2 µM. Further, the “apparent potency and efficacy” value in assay [3] is “less potent but seems rather efficient”. Besides, the “displacement of 3H-25-hydroxycholesterol bound to RORgamma-LBD” value is “dose-dependent competitive displacement” in assay [3] and “able to displace” in assay [3] (listed as TTNBP).
On to Am580, for which the results for the IC50 in assay [1] (peptide SRC1(676-700)) and in assay [1] (peptide TIF2(628-658)) were 23.4 µM and 19.8 µM, respectively. Further, the “level of IL-17” value in assay [4] (1 μM compound, stimulated PBMCs) is reported as “within the control range”; in assay [4] (5 μM compound, stimulated PBMCs), “within the control range”. Further, in assay [4] (10 μM compound, stimulated PBMCs), the “percentage of IL-17 inhibition” value came to 69.73%. In addition, in assay [4] (stimulated PBMCs), the “production” value is on record as “inhibit the production of IL-17”.
